The supplement of paper PMC10307832

Legend:
Experiment in all cases: relative viability (nuclei count vs DMSO), 5 days (fraction); higher = more cells survive
[1] = compound: CC(C)C[C@@H](C(=O)N[C@H](C(=O)OC1CCCC1)c1ccccc1)[C@H](O)C(=O)NO [Tosedostat] + CC1(C)CCC(c2ccc(Cl)cc2)=C(CN2CCN(c3ccc(C(=O)NS(=O)(=O)c4ccc(N[C@H](CCN5CCOCC5)CSc5ccccc5)c(S(=O)(=O)C(F)(F)F)c4)cc3)CC2)C1 [Navitoclax] (partner 0.5 µM)
Procedure, shortened: (§1)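 The day after seeding in 1536-well plates, lung cancer cell lines were treated by pin tool with a single drug, or with a fixed anchor-drug dose together with five library-drug doses (not always all listed) in √10 steps. After 5 days, a combined fix-and-stain solution (final 0.05% Triton X-100, 1% formaldehyde, 1 ug/ml Hoechst) was added. Nuclei counted on 4× images gave relative viability as treated counts over vehicle counts, reported as the median of duplicate plates.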

[2] = compound: CC(C)C[C@@H](C(=O)N[C@H](C(=O)OC1CCCC1)c1ccccc1)[C@H](O)C(=O)NO [Tosedostat] + CS(=O)(=O)CCNCc1ccc(-c2ccc3ncnc(Nc4ccc(OCc5cccc(F)c5)c(Cl)c4)c3c2)o1 [Lapatinib] (partner 2 µM)
Procedure, shortened: as §1

[3] = compound: CC1=NN=C(O1)C2=NN=C(C=C2)N3CCC(CC3)OC4=C(C=CC(=C4)F)Cl + CCNC(=O)c1noc(-c2cc(C(C)C)c(O)cc2O)c1-c1ccc(CN2CCOCC2)cc1 [Luminespib] (partner 0.01 µM)
Procedure, shortened: as §1

[4] = compound: CC1=NN=C(O1)C2=NN=C(C=C2)N3CCC(CC3)OC4=C(C=CC(=C4)F)Cl + Cc1nc(Nc2ncc(C(=O)Nc3c(C)cccc3Cl)s2)cc(N2CCN(CCO)CC2)n1 [Dasatinib] (partner 0.075 µM)
Procedure, shortened: as §1

Cell Line	relative viability ([1]; first compound 0.02 µM)	relative viability ([1]; first compound 0.06325 µM)	relative viability ([1]; first compound 0.2 µM)	relative viability ([1]; first compound 0.6325 µM)	relative viability ([1]; first compound 2 µM)	relative viability ([2]; first compound 0.02 µM)	relative viability ([2]; first compound 0.06325 µM)	relative viability ([2]; first compound 0.2 µM)	relative viability ([2]; first compound 0.6325 µM)	relative viability ([2]; first compound 2 µM)	relative viability ([3]; first compound 0.253 µM)	relative viability ([3]; first compound 0.8 µM)	relative viability ([3]; first compound 2.53 µM)	relative viability ([3]; first compound 8 µM)	relative viability ([4]; first compound 0.253 µM)	relative viability ([4]; first compound 0.8 µM)	relative viability ([4]; first compound 2.53 µM)	relative viability ([4]; first compound 8 µM)
NCI-H2228	1	0.856	0.781	0.961	0.793	1.11	0.991	0.822	0.784	0.533	0.164	0.15	0.132	0.131	0.555	0.412	0.537	0.405
COR-L 105	0.673	0.624	0.707	0.722	0.512	0.415	0.412	0.326	0.416	0.358	0.622	0.812	0.691	0.625	0.329	0.346	0.413	0.489
NCI-H1650	1.25	1.05	1.27	1.01	0.825	0.983	0.828	0.863	0.997	0.918		0.194	0.217	0.205		0.342	0.335	0.28
PC-3 [JPC-3]	0.85	0.837	0.825	0.678	0.638	0.445	0.453	0.432	0.452	0.428	0.674	0.686	0.611	0.603	0.944	0.813	0.877	0.852
NCI-H1755	1.05	1.05	1.01	0.931	0.958	1.1	1.08	1.09	1.1	1.13	0.376	0.337	0.354	0.418	0.36	0.438	0.406	0.373
NCI-H23	0.765	0.872	0.885	0.57	0.528	1.23	1.06	0.958	1	0.628	0.222	0.199	0.229	0.189	0.622		0.79	0.71
NCI-H1915	0.801	0.775	0.783	0.743	0.711	1.08	0.938	0.947	0.953	0.956	0.615	0.393	0.503	0.312	0.324	0.257	0.311	0.285
NCI-H2405	1.18	0.846	0.82	0.812	0.611	1.43	1.06	0.999	1.02	0.847	0.558	0.434	0.534	0.612	0.199	0.207	0.179	0.181
EMC-BAC-2	1.11	1.2	1.15	1.14	1.19	0.894	0.888	0.894	0.853	0.955	0.987	0.977	1.03	0.917	0.319	0.324	0.362	0.422
NCI-H2087	0.995	0.916	1	0.931	0.805	1.08	1.1	1.1	0.907	0.844	0.17	0.144	0.151	0.164	0.597	0.458	0.581	0.515
NCI-H727	0.369	0.295	0.386	0.282	0.195	1.11	0.589	0.631	0.657	0.575	0.531		0.6	0.629	0.328		0.441	0.384
PC-14	1.03	0.999	1.04	0.994	1.06	0.273	0.32	0.348	0.269	0.371	0.163		0.22	0.142	0.264	0.242	0.283	0.231
NCI-H2009	1.2	1.12	1.17	1.06	1.07	1.25	0.956	1.03	0.78	0.663	0.596	0.565	0.539	0.523	0.309	0.289	0.307	0.327
NCI-H1975	1.06	1.14	1	1.01	0.869	0.835	0.966	0.86	0.703	0.751			0.224	0.196		0.361	0.581	0.546
NCI-H1437	1.13	1.09	1.15	1.09	0.99	0.749	0.809	0.744	0.727	0.661	0.654	0.6	0.598	0.546	0.584	0.279	0.418	0.268
NCI-H2126	0.801	0.876	0.894	0.852	0.721	0.705	0.754	0.83	0.76	0.674	0.826	0.795	0.734	0.828	0.526	0.635	0.616	0.611
LU99A	0.813	0.869	0.774	0.832	0.683	1.02	1.08	0.76	0.813	0.869	0.224	0.227	0.246	0.199	0.517	0.674	0.728	0.509
NCI-H460	1.38	1.18	1.09	0.891	1.23	1.13	0.915	1.07	0.921	0.999	0.0224	0.0328	0.0243	0.0233	0.175	0.185	0.214	0.193

Cell Line	relative viability ([1]; first compound 0.02 µM)	relative viability ([1]; first compound 0.06325 µM)	relative viability ([1]; first compound 0.2 µM)	relative viability ([1]; first compound 0.6325 µM)	relative viability ([1]; first compound 2 µM)	relative viability ([2]; first compound 0.02 µM)	relative viability ([2]; first compound 0.06325 µM)	relative viability ([2]; first compound 0.2 µM)	relative viability ([2]; first compound 0.6325 µM)	relative viability ([2]; first compound 2 µM)	relative viability ([3]; first compound 0.253 µM)	relative viability ([3]; first compound 0.8 µM)	relative viability ([3]; first compound 2.53 µM)	relative viability ([3]; first compound 8 µM)	relative viability ([4]; first compound 0.253 µM)	relative viability ([4]; first compound 0.8 µM)	relative viability ([4]; first compound 2.53 µM)	relative viability ([4]; first compound 8 µM)
LCLC-97TM1	0.559			0.633	0.293	0.951			0.641	0.766	0.394	0.364	0.336	0.346	0.395	0.324	0.345	0.347
NCI-H838	1.23	1.16	1.2	1.33	1.46	0.93	0.914	0.961	0.904	1.24	0.257	0.255	0.348	0.226	0.299	0.32	0.301	0.331
SK-LU-1	0.889	0.854	0.939	0.608	0.771	0.915	0.774	0.7	0.709	0.739	0.218		0.207	0.185	0.166		0.0949	0.119
H3255	0.464	0.546	0.404	0.388	0.471	0.262	0.227	0.224	0.255	0.253	0.82	0.737	0.727	0.66	0.316	0.434	0.404	0.338
SK-MES-1	1.23	1.29	1.29	1.11	1	0.41	0.482	0.473	0.472	0.472	0.726	0.725	0.631	0.547	0.359	0.384	0.419	0.42
NCI-H1651	1.03	0.885	1.28	1.07	1	0.883	0.81	0.77	0.816	0.697	0.738	0.749	0.685	0.692	0.406	0.394	0.335	0.374
LXF-289	0.965	0.879	0.938	0.897	0.958	0.967	0.883	0.935	0.868	0.92	0.477	0.378	0.547	0.395	0.209	0.234	0.195	0.227
HCC-827	1.01	1.03	1.06	1.03	0.86	0.185	0.196	0.203	0.189	0.159	0.428	0.228	0.349	0.339	0.374	0.235	0.357	0.256
LK-2	0.905	0.855	0.788	0.909	0.976	0.958	0.971	0.892	0.995	1.2	0.2	0.159	0.176	0.182	0.393	0.458	0.504	0.428
BEN	0.35	0.0546	0.0614	0.0633	0.0537	0.924	0.936	0.68	0.987	0.702	0.47	0.459	0.312	0.18	0.375	0.508	0.321	0.24
NCI-H322M	1.17	1.11	1.19	1.14	1.02	0.665	0.577	0.542	0.55	0.446	0.815	0.796	0.726	0.648	0.255	0.315	0.268	0.29
NCI-H1395	1.06	1.19	0.905	0.917	0.886	1.1	0.944	0.877	0.862	0.674	0.431	0.725	0.678	0.82	0.448	0.405	0.401	0.427
201T	1.19	1.24	1.29	1.32	1.28	1.05	1.06	1.06	1.09	1.13	0.486	0.589	0.499	0.566	0.38	0.45	0.409	0.433
NCI-H2170	0.654	0.586	0.572	0.533	0.63	0.25	0.258	0.273	0.289	0.276	0.468	0.475	0.353	0.311	0.351	0.332	0.374	0.316
RERF-LC-KJ	1.03	0.953	0.948	0.517	0.614	0.824	0.908	0.855	0.821	0.879	0.75	0.647	0.612	0.673	0.553	0.559	0.619	0.581
HCC-15	0.772	0.729	0.684	0.659	0.57	0.949	0.882	0.748	0.746	0.708	0.342	0.303	0.294	0.286	0.497	0.453	0.499	0.472
NCI-H1666	0.864	0.946	0.98	1.39	1.05	0.841	0.853	0.669	0.735	0.618	0.537	0.504	0.479	0.444	0.612	0.526	0.58	0.543
EPLC-272H	1.19	1.3	0.826	0.775	0.576	1.03	0.944	0.637	0.755	0.621	0.226	0.167	0.313	0.267	0.35	0.277	0.404	0.302
